{"source": "patent US20030170249A1", "about": "“Vaccines directed to cancer-associated carbohydrate antigens” (priority 1999, published 2003)", "key": {"TA3Ha cells [1]": {"test_system": "TA3Ha cells", "experiment": "Tumor growth suppression by vaccination with Tn antigen (A-OSM or A-BSM), Ribi adjuvant and cyclophosphamide", "assay_type": "in vivo, mouse", "settings": "CP only; 700 TA3Ha cells i.p.", "procedure": "Tumor growth suppression was tested using A-OSM or A-BSM with Ribi adjuvant, which is essentially composed of trehalose dimycolate and monophosphoryl Lipid A, the effective component of mycobacteria known to stimulate immune response of T as well as B cells (Ribi et al., Clin. Immunol. Newsletter 6:33-36, 1985). A-OSM and A-BSM were produced by treatment with neuraminidase as described above. […] For example, 100 μg of A-OSM or A-BSM were mixed with 500 μg of complete Ribi adjuvant and injected subcutaneously at day −7 (i.e., 7 days before tumor cell inoculation). On day 0, 700 TA3Ha cells were injected intraperitoneally. On day 1, CP (75 mg/kg) was injected intraperitoneally. On days 2, 5, 12, and 19, 100 μg antigen/500 μg Ribi adjuvant complex was injected subcutaneously. Another experimental group was injected with CP-Ribi on days 2, 5, 12, and 19, respectively."}, "TA3Ha cells [2]": {"test_system": "TA3Ha cells", "experiment": "Synthetic Tn-KLH/Ribi tumor vaccine, TA3Ha challenge i.p.", "assay_type": "in vivo, mouse", "settings": "control groups; TA3Ha i.p. day 0, CP day 1", "experimental": "Mice were preimmunized at day −7 with 50 μg of synthetic Tn/Ribi, s.c. and were challenged with TA3Ha cells, i.p. at day 0.\nMice were immunized with 30 μg of monomeric Tn-KLH/Ribi or dimeric Tn-KLH/Ribi on days −7, 2, 5, 12 and 19."}, "[3]": {"test_system": "B16 melanoma and mouse colonic carcinoma Colon 26", "settings": "mice bearing various tumors; cited from earlier work"}, "V alpha 14 NKT cells": {"test_system": "V alpha 14 NKT cells", "settings": "cited from earlier work"}, "V alpha 14 TCR": {"test_system": "V alpha 14 TCR", "settings": "cited from earlier work"}, "antibody to Le^y": {"test_system": "antibody to Le^y", "settings": "cited from earlier work"}, "MHC Class I Kb / Db": {"test_system": "MHC Class I Kb / Db", "settings": "peptides binding MHC Class I Kb; cited from earlier work"}, "[4]": {"test_system": "B16 melanoma cells of clones F-1 or F-10", "experiment": "Active immunization with GM3 lactone, B16 melanoma development", "assay_type": "in vivo", "settings": "immunized BALB/c mice", "procedure": "Ten BALB/c mice were immunized with native GM3 or GM3 lactone coated on acid-treated Salmonella minnesota. Immunization was carried out by intravenous injection of 200 μl of the GM3 or GM3 lactone preparation once per week for 4 weeks. Subsequently, 1.0×10^5 B16 melanoma cells of clones F-1 or F-10, were subcutaneously injected into the back of the mice and tumor growth was observed after 20 days. As controls, other glycolipids, such as paragloboside coated on acid-treated Salmonella minnesota, and Salmonella minnesota alone, were used in the same amounts as discussed above.\nIn the table, the numbers indicate the number of animal which died over the total number of animals immunized."}, "[5]": {"settings": "cited from earlier work"}}, "note": "Read-outs that look alike come from different tables or passages of the source. Where no end group is shown, it is not given here."}
{"compound": "O=P1(N(CCCl)CCCl)NCCCO1", "note": "(stereo not shown) [CP, Cyclophosphamide]", "values": [{"measurement": "most animals had died by", "setting": "TA3Ha cells [1]", "result": "20 to 30", "unit": "days"}, {"measurement": "tumor growth suppression", "setting": "TA3Ha cells [1]", "result": "some tumor growth suppression"}, {"measurement": "survival of tumor challenge", "setting": "TA3Ha cells [2]", "result": "did not survive tumor challenge"}]}
{"compound": "CCCCCCCCCCCCCCCCCCCCCCCCCC(=O)N[C@@H](CO[C@H]1O[C@H](CO)[C@H](O)[C@H](O)[C@H]1O)[C@H](O)[C@H](O)CCCCCCCCCCCCCC", "note": "[alpha-GalCer]", "values": [{"measurement": "tumor growth and metastasis", "setting": "[3]", "result": "abrogated tumor growth and metastasis"}, {"measurement": "proliferation of V alpha 14 NKT cells", "setting": "V alpha 14 NKT cells", "result": "stimulate proliferation"}, {"measurement": "binding to V alpha 14 TCR", "setting": "V alpha 14 TCR", "result": "bind V alpha 14 TCR"}]}
{"compound": "APWLYGPA [peptide selected from phage display library with antibody to Le^y]", "values": [{"measurement": "binding of the antibody to Le^y", "setting": "antibody to Le^y", "result": "inhibited binding"}]}
{"compound": "Di-Gal (Galα1-4Gal) oligosaccharide linked to N or P of FAPGNYPAL: di-Gal linked to MHC Class I Kb binding peptide FAPGNYPAL (also: di-Gal (Galα1-4Gal) linked to N or P)", "values": [{"measurement": "cytotoxic T cell response to the oligosaccharide residue", "setting": "MHC Class I Kb / Db", "result": "elicited a cytotoxic T cell response"}]}
{"compound": "Di-Gal (Galα1-4Gal) oligosaccharide linked to V or Q of RGYVYQGL: di-Gal linked to MHC Class I Kb binding peptide RGYVYQGL (also: di-Gal (Galα1-4Gal) linked to V or Q)", "values": [{"measurement": "cytotoxic T cell response to the oligosaccharide residue", "setting": "MHC Class I Kb / Db", "result": "elicited a cytotoxic T cell response"}]}
{"compound": "GM3", "values": [{"measurement": "tumor growth reduced", "setting": "[4]", "result": "not"}]}
{"compound": "GM3 lactone", "values": [{"measurement": "tumor growth reduced", "setting": "[4]", "result": "reduced"}, {"measurement": "stability of the structure", "setting": "[5]; acidic to neutral pH", "result": "relatively stable"}, {"measurement": "stability of the structure", "setting": "[5]; alkaline pH", "result": "unstable"}]}
